Source: patent US20160090351A1, “INHIBITORS OF DEUBIQUITINATING PROTEASES” (BRANDEIS UNIVERSITY, priority 2013, published 2016)

System: desumoylation
Test: stabilization of SUMOylated proteins in lysates from HA-SUMO transfected HEK 293T cells
Type: biochemical, human
Details: G5 5 μM, C4 300 μM
Experimental: Untransfected HEK 293T cell lysates were treated with the vehicle alone (DMSO at 1%) or compound and incubated at 37° C. for 2 h. Samples were analyzed by SDS-PAGE and immunoblotting with antibody recognizing K48-linked ubiquitin. D=DMSO; G5=G5 isopeptidase inhibitor 1. A-D show titrations of different compounds (see FIG. 29B for structures). E-H Lysates were prepared from HEK 293T cells expressing HA-SUMO and treated with vehicle alone (DMSO, 1%) or compound. Samples were incubated for the appropriate time and analyzed by SDS-PAGE and immunoblotting with anti-HA antibody. Representative experiments are shown. E. Vehicle control. F. G5, 5 μM; G. C4, 300 μM. H. Quantification of blots as in E-G, N=2 average and range. I-J. Lysates were prepared from HEK 293T cells expressing HA-Ub and treated with either vehicle alone (1% DMSO) or compound at 37° C. for 3 h. Samples were analyzed by SDS-PAGE and immunoblotting with anti-HA antibody. I. A representative experiment. J. Quantitation of experiments in I (N=2 average and range shown). […]
Similar effects were observed when the endogenous K48-linked ubiquitin pool was monitored in lysates prepared from wild-type HEK 293T cells (FIG. 37A-D). Unfortunately, K63-linked ubiquitin could not be detected in these lysates. The ability of C4 to stabilize SUMOylated proteins in lysates from HA-SUMO transfected HEK 293T cells was also assessed.

## O=C1/C(=C/c2ccc([N+](=O)[O-])cc2)CS(=O)(=O)C/C1=C\c1ccc([N+](=O)[O-])cc1 [Compound G5, reference compound]
  inhibition of desumoylation: Neither G5 nor C4 inhibited desumoylation
